Results: patent publication US9695155B2, “Herbicidal substituted pyrimidinyloxy benzene compounds” (E. I. DU PONT DE NEMOURS AND COMPANY, priority 2013, dated 2017)

Experiments:
rice = experiment: Test C flooded paddy test; format: in vivo, Oryza sativa; settings: Flood, scale 0 to 100 (0 no effect, 100 complete control), 13 to 15 days
Method in brief: (§1)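 Test compounds are applied straight into paddy water held 3 cm above the soil surface, with that flood maintained for the whole test. After 13 to 15 days in the greenhouse, each species is scored visually relative to controls.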

sedge, umbrella = experiment: Test C flooded paddy test; format: in vivo, Cyperus difformis; settings: Flood, scale 0 to 100 (0 no effect, 100 complete control), 13 to 15 days
Method in brief: as §1

dayflower = experiment: Test E postemergence; format: in vivo, Commelina virginica
Description: (§2) Seeds of plant species selected from corn (Zea mays), soybean (Glycine max), velvetleaf (Abutilon theophrasti), lambsquarters (Chenopodium album), wild poinsettia (Euphorbia heterophylla), palmer pigweed (Amaranthus palmeri), waterhemp (common waterhemp, Amaranthus rudis), surinam grass (Brachiaria decumbens), large (Lg) crabgrass (Digitaria sanguinalis), Brazilian crabgrass (Digitaria horizontalis), fall panicum (Panicum dichotomiflorum), giant foxtail (Setaria faberii), green foxtail (Setaria viridis), goosegrass (Eleusine indica), johnsongrass (Sorghum halepense), ragweed (common ragweed, Ambrosia elatior), barnyardgrass (Echinochloa crus-galli), sandbur (southern sandbur, Cenchrus echinatus), arrowleaf sida (Sida rhombifolia), Italian ryegrass (Lolium multiflorum), dayflower (Virginia (VA) dayflower, Commelina virginica), field bindweed (Convolvulus arvensis), morningglory (Ipomoea coccinea), nightshade (eastern black nightshade, Solanum ptycanthum), kochia (Kochia scoparia), yellow nutsedge (Cyperus esculentus), cocklebur (common cocklebur, Xanthium strumarium), smartweed (ladysthumb smartweed, and hairy beggarticks (Bidens pilosa), were planted into a silt loam soil and treated preemergence with test chemicals formulated in a non-phytotoxic solvent mixture which included a surfactant.
(§3) At the same time, plants from these crop and weed species and also horseweed (Canada horseweed, Conyza canadensis), waterhemp_RES1, (ALS & Triazine resistant common waterhemp, Amaranthus rudis), and waterhemp_RES2, (ALS & HPPD resistant common waterhemp, Amaranthus rudis) were planted in pots containing Redi-Earth® planting medium (Scotts Company, 14111 Scottslawn Road, Marysville, Ohio 43041) comprising spaghnum peat moss, vermiculite, wetting agent and starter nutrients were treated with postemergence applications of test chemicals formulated in the same manner. Plants ranged in height from 2 to 18 cm for postemergence treatments (1- to 4-leaf stage). Treated plants and controls were maintained in a greenhouse for 14 to 21 days, after which time all species were compared to controls and visually evaluated. Plant response ratings, summarized in Table E, are based on a scale of 0 to 100 where 0 is no effect and 100 is complete control. A dash (-) response means no test result.

Brazilian crabgrass = experiment: Test E postemergence; format: in vivo, Digitaria horizontalis
Description: as §2, §3

corn = experiment: Test E postemergence; format: in vivo, Zea mays
Description: as §2, §3

Italian ryegrass = experiment: Test E postemergence; format: in vivo, Lolium multiflorum
Description: as §2, §3

soybean = experiment: Test E postemergence; format: in vivo, Glycine max
Description: as §2, §3

[1] = Postemergence, 31 g ai/ha, scale 0 to 100
[2] = Postemergence, 62 g ai/ha, scale 0 to 100
[3] = Postemergence, 125 g ai/ha, scale 0 to 100
[4] = postemergence, 16 g ai/ha, scale 0 to 100, 0 no effect, 100 complete control

SMILES | Plant response rating, Rice (rice; 31 g ai/ha) | Plant response rating, Rice (rice; 62 g ai/ha) | Plant response rating, Rice (rice; 125 g ai/ha) | Plant response rating, Rice (rice; 250 g ai/ha) | Plant response rating, Sedge, Umbrella (sedge, umbrella; 31 g ai/ha) | Plant response rating, Sedge, Umbrella (sedge, umbrella; 62 g ai/ha) | Plant response rating, Sedge, Umbrella (sedge, umbrella; 125 g ai/ha) | Plant response rating, Sedge, Umbrella (sedge, umbrella; 250 g ai/ha) | also measured
Fc1cccc(Oc2ncc(Cl)cn2)c1-n1cc(C(F)F)nn1 [Compound 141, 5-chloro-2-[2-[4-(difluoromethyl)-1H-1,2,3-triazol-1-yl]-3-fluorophenoxy]pyrimidine] | 0 | 0 | 40 | 60 | 0 | 40 | 75 | 100 | –
Fc1cccc(Oc2ncc(Cl)cn2)c1-n1cc(Cl)cn1 [Compound 177] | 0 | 0 | 10 | 10 | 0 | 0 | 60 | 85 | –
Clc1cnc(Oc2cccc(Cl)c2-n2cc(I)cn2)nc1 [Compound 181] | – | – | – | – | – | – | – | – | Plant response rating, Dayflower, VA (dayflower; [1]): 30; Plant response rating, Dayflower, VA (dayflower; [2]): 40; Plant response rating, Dayflower, VA (dayflower; [3]): 60; Plant response rating, Dayflower, VA (dayflower; [4]): 20; Plant response rating, Crabgrass, Brazil (Brazilian crabgrass; [1]): 20; Plant response rating, Crabgrass, Brazil (Brazilian crabgrass; [2]): 30; Plant response rating, Crabgrass, Brazil (Brazilian crabgrass; [3]): 30; Plant response rating, Crabgrass, Brazil (Brazilian crabgrass; [4]): 20; Plant response rating, Corn (corn; [1]): 5; Plant response rating, Corn (corn; [2]): 15; Plant response rating, Corn (corn; [3]): 15; Plant response rating, Corn (corn; [4]): 5; Plant response rating, Ryegrass, Italian (Italian ryegrass; [1]): 5; Plant response rating, Ryegrass, Italian (Italian ryegrass; [2]): 10; Plant response rating, Ryegrass, Italian (Italian ryegrass; [3]): 20; Plant response rating, Ryegrass, Italian (Italian ryegrass; [4]): 5; Plant response rating, Soybean (soybean; [1]): 80; Plant response rating, Soybean (soybean; [2]): 90; Plant response rating, Soybean (soybean; [3]): 95; Plant response rating, Soybean (soybean; [4]): 50
FC(F)c1cnn(-c2c(Cl)cccc2Oc2ncc(Cl)cn2)c1 [Compound 192] | 0 | 0 | 0 | 0 | 0 | 0 | 50 | 85 | –
